# Experimental data published in ChEMBL document CHEMBL1201862, “PubChem BioAssay data set” (2004).
#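 Cells were grown in 96-well plates and exposed to each compound for 48 hours at five concentrations; endpoints were interpolated linearly between bracketing concentrations, or set to the highest concentration if not reached. GI50 is the concentration that inhibits growth by half.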 The source made the active and inactive calls. Cut-off read from the data, not from the text of the source: active = GI50 up to about 1.1 µM and inactive = higher.
# Columns and labels:
# Test in all cases: NCI anticancer screen, dose series, 48 h
# 786-0 = tested on: 786-0
# A498 = tested on: A498
# A549 = tested on: A549
# ACHN = tested on: ACHN
# BT-549 = tested on: BT-549
# CAKI-1 = tested on: CAKI-1
# CCRF-CEM = tested on: CCRF-CEM
# COLO 205 = tested on: COLO 205
# DU-145 = tested on: DU-145
# EKVX = tested on: EKVX
# HCT-116 = tested on: HCT-116
# HCT-15 = tested on: HCT-15
# HL-60 = tested on: HL-60
# HOP-62 = tested on: HOP-62
# HOP-92 = tested on: HOP-92
# HT-29 = tested on: HT-29
# Hs-578T = tested on: Hs-578T
# IGROV-1 = tested on: IGROV-1
# K562 = tested on: K562
# KM12 = tested on: KM12
# LOX IMVI = tested on: LOX IMVI
# M14 = tested on: M14
# MDA-MB-231 = tested on: MDA-MB-231
# MDA-MB-435 = tested on: MDA-MB-435
# MDA-N = tested on: MDA-N
# MOLT-4 = tested on: MOLT-4
# Malme-3M = tested on: Malme-3M
# NCI-H226 = tested on: NCI-H226
# NCI-H23 = tested on: NCI-H23
# NCI-H522 = tested on: NCI-H522
# NCI/ADR-RES = tested on: NCI/ADR-RES
# OVCAR-3 = tested on: OVCAR-3
# OVCAR-4 = tested on: OVCAR-4
# OVCAR-5 = tested on: OVCAR-5
# OVCAR-8 = tested on: OVCAR-8
# PC-3 = tested on: PC-3
# RPMI-8226 = tested on: RPMI-8226
# RXF 393 = tested on: RXF 393
# SF-268 = tested on: SF-268
# SF-295 = tested on: SF-295
# SK-MEL-28 = tested on: SK-MEL-28
# SK-MEL-2 = tested on: SK-MEL-2
# SK-MEL-5 = tested on: SK-MEL-5
# SK-OV-3 = tested on: SK-OV-3
# SN12C = tested on: SN12C
# SNB-19 = tested on: SNB-19
# SNB-75 = tested on: SNB-75
# SW-620 = tested on: SW-620
# T47D = tested on: T47D
# TK-10 = tested on: TK-10
# U-251 = tested on: U-251
# UACC-257 = tested on: UACC-257
# UACC-62 = tested on: UACC-62
# UO-31 = tested on: UO-31
# SR = tested on: SR
# HCC 2998 = tested on: HCC 2998
# MCF7 = tested on: MCF7
# NCI-H460 = tested on: NCI-H460
# SF-539 = tested on: SF-539
compound,measurement,setting,value
C[C@@H](CO)C1=C(O)C(=O)c2c(ccc3c2CCCC3(C)C)C1=O,GI50,786-0,55.3 µM (inactive)
same,GI50,A498,33 µM (inactive)
same,GI50,A549,32.1 µM (inactive)
same,GI50,ACHN,18.5 µM (inactive)
same,GI50,BT-549,37.1 µM (inactive)
same,GI50,CAKI-1,44.9 µM (inactive)
same,GI50,CCRF-CEM,3.33 µM (inactive)
same,GI50,COLO 205,38.3 µM (inactive)
same,GI50,DU-145,47 µM (inactive)
same,GI50,EKVX,33.5 µM (inactive)
same,GI50,HCT-116,45.5 µM (inactive)
same,GI50,HCT-15,29 µM
same,GI50,HL-60,< 0.01 µM (active)
same,GI50,HOP-62,29.2 µM (inactive)
same,GI50,HOP-92,21.2 µM (inactive)
same,GI50,HT-29,35.5 µM (inactive)
same,GI50,Hs-578T,51.2 µM (inactive)
same,GI50,IGROV-1,37.2 µM (inactive)
same,GI50,K562,30.3 µM (inactive)
same,GI50,KM12,37.2 µM (inactive)
same,GI50,LOX IMVI,59.4 µM (inactive)
same,GI50,M14,17.7 µM (inactive)
same,GI50,MDA-MB-231,61.4 µM (inactive)
same,GI50,MDA-MB-435,26.8 µM (inactive)
same,GI50,MDA-N,45.1 µM (inactive)
same,GI50,MOLT-4,42.1 µM (inactive)
same,GI50,Malme-3M,15.9 µM (inactive)
same,GI50,NCI-H226,28.2 µM (inactive)
same,GI50,NCI-H23,22.1 µM (inactive)
same,GI50,NCI-H522,15.5 µM (inactive)
same,GI50,NCI/ADR-RES,38.8 µM (inactive)
same,GI50,OVCAR-3,28.2 µM (inactive)
same,GI50,OVCAR-4,46.7 µM (inactive)
same,GI50,OVCAR-5,36.6 µM (inactive)
same,GI50,OVCAR-8,35.2 µM (inactive)
same,GI50,PC-3,31.8 µM (inactive)
same,GI50,RPMI-8226,23 µM (inactive)
same,GI50,RXF 393,43.8 µM (inactive)
same,GI50,SF-268,32.2 µM (inactive)
same,GI50,SF-295,30.4 µM (inactive)
same,GI50,SK-MEL-28,30.8 µM (inactive)
same,GI50,SK-MEL-2,23.2 µM (inactive)
same,GI50,SK-MEL-5,30.5 µM (inactive)
same,GI50,SK-OV-3,61.9 µM (inactive)
same,GI50,SN12C,54.8 µM (inactive)
same,GI50,SNB-19,25.7 µM (inactive)
same,GI50,SNB-75,40 µM (inactive)
same,GI50,SW-620,28.3 µM (inactive)
same,GI50,T47D,50.6 µM (inactive)
same,GI50,TK-10,45.4 µM (inactive)
same,GI50,U-251,14.1 µM (inactive)
same,GI50,UACC-257,32.1 µM (inactive)
same,GI50,UACC-62,23.2 µM (inactive)
same,GI50,UO-31,33.3 µM (inactive)
O=C1c2ccccc2C(=O)c2cc(/N=N/c3c(O)ccc4ccccc34)ccc21,GI50,786-0,> 100 µM (inactive)
same,GI50,A498,> 100 µM (inactive)
same,GI50,A549,> 100 µM (inactive)
same,GI50,ACHN,> 100 µM (inactive)
same,GI50,BT-549,> 100 µM (inactive)
same,GI50,CAKI-1,> 100 µM (inactive)
same,GI50,CCRF-CEM,> 100 µM (inactive)
same,GI50,COLO 205,> 100 µM (inactive)
same,GI50,DU-145,> 100 µM (inactive)
same,GI50,EKVX,89.7 µM (inactive)
same,GI50,HCT-116,> 100 µM (inactive)
same,GI50,HCT-15,> 100 µM
same,GI50,HOP-62,30.2 µM (inactive)
same,GI50,HOP-92,> 100 µM (inactive)
same,GI50,HT-29,> 100 µM (inactive)
same,GI50,Hs-578T,27.7 µM (inactive)
same,GI50,IGROV-1,> 100 µM (inactive)
same,GI50,K562,> 100 µM (inactive)
same,GI50,KM12,> 100 µM (inactive)
same,GI50,LOX IMVI,> 100 µM (inactive)
same,GI50,M14,> 100 µM (inactive)
same,GI50,MDA-MB-231,> 100 µM (inactive)
same,GI50,MDA-MB-435,> 100 µM (inactive)
same,GI50,MDA-N,> 100 µM (inactive)
same,GI50,MOLT-4,> 100 µM (inactive)
same,GI50,Malme-3M,> 100 µM (inactive)
same,GI50,NCI-H226,> 100 µM (inactive)
same,GI50,NCI-H23,> 100 µM (inactive)
same,GI50,NCI-H522,> 100 µM (inactive)
same,GI50,NCI/ADR-RES,> 100 µM (inactive)
same,GI50,OVCAR-3,> 100 µM (inactive)
same,GI50,OVCAR-4,> 100 µM (inactive)
same,GI50,OVCAR-5,> 100 µM (inactive)
same,GI50,OVCAR-8,> 100 µM (inactive)
same,GI50,PC-3,> 100 µM (inactive)
same,GI50,RPMI-8226,> 100 µM (inactive)
same,GI50,RXF 393,> 100 µM (inactive)
same,GI50,SF-268,30.1 µM (inactive)
same,GI50,SF-295,> 100 µM (inactive)
same,GI50,SK-MEL-28,> 100 µM (inactive)
same,GI50,SK-MEL-2,> 100 µM (inactive)
same,GI50,SK-MEL-5,> 100 µM (inactive)
same,GI50,SK-OV-3,> 100 µM (inactive)
same,GI50,SN12C,> 100 µM (inactive)
same,GI50,SNB-19,> 100 µM (inactive)
same,GI50,SNB-75,> 100 µM (inactive)
same,GI50,SR,> 100 µM (inactive)
same,GI50,SW-620,> 100 µM (inactive)
same,GI50,T47D,> 100 µM (inactive)
same,GI50,TK-10,> 100 µM (inactive)
same,GI50,U-251,56.4 µM (inactive)
same,GI50,UACC-257,> 100 µM (inactive)
same,GI50,UACC-62,> 100 µM (inactive)
same,GI50,UO-31,> 100 µM (inactive)
CNn1c(C)n[nH]c1=O,GI50,786-0,> 100 µM (inactive)
same,GI50,A498,> 100 µM (inactive)
same,GI50,A549,> 100 µM (inactive)
same,GI50,ACHN,> 100 µM (inactive)
same,GI50,BT-549,> 100 µM (inactive)
same,GI50,CAKI-1,> 100 µM (inactive)
same,GI50,CCRF-CEM,> 100 µM (inactive)
same,GI50,COLO 205,> 100 µM (inactive)
same,GI50,DU-145,> 100 µM (inactive)
same,GI50,EKVX,> 100 µM (inactive)
same,GI50,HCC 2998,> 100 µM (inactive)
same,GI50,HCT-116,> 100 µM (inactive)
same,GI50,HCT-15,> 100 µM
same,GI50,HL-60,> 100 µM (inactive)
same,GI50,HOP-62,> 100 µM (inactive)
same,GI50,HOP-92,> 100 µM (inactive)
same,GI50,Hs-578T,> 100 µM (inactive)
same,GI50,IGROV-1,> 100 µM (inactive)
same,GI50,K562,> 100 µM (inactive)
same,GI50,KM12,> 100 µM (inactive)
same,GI50,LOX IMVI,> 100 µM (inactive)
same,GI50,M14,> 100 µM (inactive)
same,GI50,MCF7,> 100 µM (inactive)
same,GI50,MDA-MB-231,> 100 µM (inactive)
same,GI50,MDA-MB-435,> 100 µM (inactive)
same,GI50,MOLT-4,> 100 µM (inactive)
same,GI50,Malme-3M,96.8 µM (inactive)
same,GI50,NCI-H226,> 100 µM (inactive)
same,GI50,NCI-H23,> 100 µM (inactive)
same,GI50,NCI-H460,> 100 µM (inactive)
same,GI50,NCI-H522,> 100 µM (inactive)
same,GI50,NCI/ADR-RES,> 100 µM (inactive)
same,GI50,OVCAR-3,> 100 µM (inactive)
same,GI50,OVCAR-4,> 100 µM (inactive)
same,GI50,OVCAR-5,> 100 µM (inactive)
same,GI50,OVCAR-8,> 100 µM (inactive)
same,GI50,PC-3,> 100 µM (inactive)
same,GI50,RPMI-8226,> 100 µM (inactive)
same,GI50,SF-268,> 100 µM (inactive)
same,GI50,SF-295,> 100 µM (inactive)
same,GI50,SF-539,> 100 µM (inactive)
same,GI50,SK-MEL-28,> 100 µM (inactive)
same,GI50,SK-MEL-2,> 100 µM (inactive)
same,GI50,SK-MEL-5,> 100 µM (inactive)
same,GI50,SK-OV-3,> 100 µM (inactive)
same,GI50,SN12C,> 100 µM (inactive)
same,GI50,SNB-19,> 100 µM (inactive)
same,GI50,SNB-75,50.8 µM (inactive)
same,GI50,SR,> 100 µM (inactive)
same,GI50,SW-620,> 100 µM (inactive)
same,GI50,T47D,> 100 µM (inactive)
same,GI50,TK-10,> 100 µM (inactive)
same,GI50,U-251,> 100 µM (inactive)
same,GI50,UACC-257,> 100 µM (inactive)
same,GI50,UACC-62,> 100 µM (inactive)
same,GI50,UO-31,> 100 µM (inactive)
